Results reported in US20230146455A1, “TREATMENT OF INFLAMMATORY DISEASES WITH PEPTIDES AND PHARMACEUTICAL COMPOSITIONS” (Yuyu Pharma, Inc., priority 2020, published 2023).
Several values for one entry are separate records, joined by “and”; a condition that tells them apart may be missing. Equal entries are not always repeated. Where a SMILES comes first, the peptide text is derived from it. [ ]: non-standard residue; d: D form. Hyp = O=C(O)[C@@H]1C[C@@H](O)CN1

System: IL-1 beta/IL-1F2
Experiment: Example 9 Luminex, LPS hPBMCs: IL-1 beta/IL-1F2
Format: cell-based, human
Procedure: Treatment Human PBMCs were pretreated with YY-101, YDE-011 and YDE-043 or reference compound; Xiidra® at various concentration (ranging from 1 nM to 100 uM) for 2 h before stimulation. An equal volume of 0.5% DMSO was used as a vehicle control. Then, the cells were treated with LPS at 5 ug/ml. The supernatants from treated cells were harvested at 24 h and placed in a 96 well for Luminex cytokine & chemokine profiling using a Luminex 200 multiplex assay (Luminex; R&D system, USA).
The main study arm with triplicate wells per group in a 24-well plate: • 1. Blank • 2. PBMC: 0.5% DMSO • 3. PBMC+LPS (5 ug/ml) • 4. PBMC+YY-101 100 uM • 5. PBMC+YY-101 10 uM • 6. PBMC+YY-101 1 uM • 7. PBMC+YY-101 0.1 uM • 8. PBMC+YY-101 0.01 uM • 9. PBMC+LPS (5 ug/ml)+Xiidra®100 uM • 10. PBMC+LPS (5 ug/ml)+Xiidra® 10 uM • 11. PBMC+LPS (5 ug/ml)+Xiidra® 1 uM • 12. PBMC+LPS (5 ug/ml)+Xiidra®0.1 uM • 13. PBMC+LPS (5 ug/ml)+Xiidra®0.01 uM • 14. PBMC+LPS (5 ug/ml)+Xiidra®0.001 uM • 15. PBMC+LPS (5 ug/ml)+YY-101 100 uM • 16. PBMC+LPS (5 ug/ml)+YY-101 10 uM • 17. PBMC+LPS (5 ug/ml)+YY-101 1 uM • 18. PBMC+LPS (5 ug/ml)+YY-101 0.1 uM • 19. PBMC+LPS (5 ug/ml)+YY-101 0.01 uM • 20. PBMC+LPS (5 ug/ml)+YY-101 0.001 uM • 21. PBMC+LPS (5 ug/ml)+YDE-011 100 uM • 22. PBMC+LPS (5 ug/ml)+YDE-011 10 uM • 23. PBMC+LPS (5 ug/ml)+YDE-011 1 uM • 24. PBMC+LPS (5 ug/ml)+YDE-011 0.1 uM • 25. PBMC+LPS (5 ug/ml)+YDE-011 0.01 uM • 26. PBMC+LPS (5 ug/ml)+YDE-011 0.001 uM • 27. PBMC+LPS (5 ug/ml)+YDE-043 100 uM • 28. PBMC+LPS (5 ug/ml)+YDE-043 10 uM • 29. PBMC+LPS (5 ug/ml)+YDE-043 1 uM • 30. PBMC+LPS (5 ug/ml)+YDE-043 0.1 uM • 31. PBMC+LPS (5 ug/ml)+YDE-043 0.01 uM • 32. PBMC+LPS (5 ug/ml)+YDE-043 0.001 uM
Multiplex assay was used to measure 30 cytokines and chemokines. The 1:2, 1:10 and 1:200 diluted cell supernatant and serial dilution of the standard were dispensed into a 96 well plate at 50 ul/well. Then, the pre-mixed cocktail of antibody-coated magnetic beads was dispensed at 50 ul/well and incubated at room temperature for 2 h in a horizontal orbital microplate shaker at 800±500 rpm. The beads were washed using a magnetic device to prevent loss. The biotin-antibody was dispensed in 50 ul of each well and incubated at room temperature for 1 h in a shaker at 800±500 rpm. After washing, streptavidin-PE was added at 50 ul/well and incubated at room temperature for 30 min in a shaker under the same conditions. Finally, after washing, wash buffer (100 ul/well) was added to the plate and incubated in a shaker for 2 min. The Luminex™ 200 setting were set according to the manufacturer's protocol. The data was calculated with a standard five-parameter logistic nonlinear regression analysis of the data (xPonent software 4.2, USA). The levels of cytokine/chemokine are normalized to the live cell counts (1×10^5 cells/mL) and presented as concentrations per mL (pg/mL or ng/mL).

[1] = PBMC + LPS(5 ug/ml) + test article 0.001 uM, Mean
[2] = PBMC + LPS(5 ug/ml) + test article 0.001 uM, single replicates
[3] = PBMC + LPS(5 ug/ml) + test article 0.01 uM, Mean
[4] = PBMC + LPS(5 ug/ml) + test article 0.01 uM, single replicates
[5] = PBMC + LPS(5 ug/ml) + test article 0.1 uM, Mean
[6] = PBMC + LPS(5 ug/ml) + test article 0.1 uM, single replicates
[7] = PBMC + LPS(5 ug/ml) + test article 1 uM, Mean
[8] = PBMC + LPS(5 ug/ml) + test article 1 uM, single replicates
[9] = PBMC + LPS(5 ug/ml) + test article 10 uM, Mean
[10] = PBMC + LPS(5 ug/ml) + test article 10 uM, single replicates
[11] = PBMC + LPS(5 ug/ml) + test article 100 uM, Mean
[12] = PBMC + LPS(5 ug/ml) + test article 100 uM, single replicates

SMILES | Concentration [1] [pg/mL] | MFI [1] | conc/live cell [1] [pg/10^5] | Concentration [2] | MFI [2] | conc/live cell [2] | Concentration [3] [pg/mL] | MFI [3] | conc/live cell [3] [pg/10^5] | Concentration [4] | MFI [4] | conc/live cell [4] | Concentration [5] [pg/mL] | MFI [5] | conc/live cell [5] [pg/10^5] | Concentration [6] | MFI [6] | conc/live cell [6] | Concentration [7] [pg/mL] | MFI [7] | further results
CC(C)C[C@H](NC(=O)[C@H](CCC(N)=O)NC(=O)CNC(=O)[C@@H]1C[C@@H](O)CN1)C(=O)NCC(=O)O [YDE-043] (H-[Hyp]GQLG-OH; N-terminus and C-terminus assumed) | 6632.8 | 1711.8 | 1343.9 | 6369.5 pg/mL and 7037.7 pg/mL and 6491.1 pg/mL | 1640.5 and 1821.5 and 1673.5 | 1447.6 pg/10^5 and 1173.0 pg/10^5 and 1411.1 pg/10^5 | 6569.2 | 1694.7 | 1253.9 | 6432.1 pg/mL and 6655.2 pg/mL and 6620.2 pg/mL | 1657.5 and 1718.0 and 1708.5 | 1429.4 pg/10^5 and 1008.4 pg/10^5 and 1324.0 pg/10^5 | 6324.2 | 1628.2 | 1172.5 | 6049.3 pg/mL and 6384.2 pg/mL and 6539.0 pg/mL | 1553.5 and 1644.5 and 1686.5 | 1209.9 pg/10^5 and 1140.0 pg/10^5 and 1167.7 pg/10^5 | 6195.3 | 1593.2 | conc/live cell [7]: 1173.7 pg/10^5; Concentration [8]: 6303.2 pg/mL and 5942.7 pg/mL and 6340.0 pg/mL; MFI [8]: 1622.5 and 1524.5 and 1632.5; conc/live cell [8]: 1086.8 pg/10^5 and 1238.1 pg/10^5 and 1196.2 pg/10^5; Concentration [9]: 6556.9 pg/mL; MFI [9]: 1691.3; conc/live cell [9]: 1214.7 pg/10^5; Concentration [10]: 6382.4 pg/mL and 6634.9 pg/mL and 6653.4 pg/mL; MFI [10]: 1644.0 and 1712.5 and 1717.5; conc/live cell [10]: 1227.4 pg/10^5 and 1228.7 pg/10^5 and 1188.1 pg/10^5; Concentration [11]: 8209.5 pg/mL; MFI [11]: 2135.8; conc/live cell [11]: 1304.8 pg/10^5; Concentration [12]: 8744.5 pg/mL and 7674.4 pg/mL; MFI [12]: 2278.5 and 1993.0; conc/live cell [12]: 1410.4 pg/10^5 and 1199.1 pg/10^5
CC(C)C[C@H](NC(=O)CNC(=O)[C@H](CC(C)C)NC(=O)[C@H](CCC(N)=O)NC(=O)CNC(=O)[C@@H]1C[C@@H](O)CN1)C(=O)N[C@@H](C)C(=O)NCC(=O)N1CCC[C@H]1C(=O)N[C@@H](CCCCN)C(=O)O [YDE-011] (H-[Hyp]GQLGLAGPK-OH) | 6481.9 | 1671.0 | 1225.5 | 6498.5 pg/mL and 6544.6 pg/mL and 6402.7 pg/mL | 1675.5 and 1688.0 and 1649.5 | 1444.1 pg/10^5 and 1128.4 pg/10^5 and 1103.9 pg/10^5 | 6567.3 | 1694.2 | 1128.7 | 6557.5 pg/mL and 6476.4 pg/mL and 6668.1 pg/mL | 1691.5 and 1669.5 and 1721.5 | 1057.7 pg/10^5 and 1269.9 pg/10^5 and 1058.4 pg/10^5 | 6345.6 | 1634.0 | 1115.2 | 6305.1 pg/mL and 6376.9 pg/mL and 6354.8 pg/mL | 1623.0 and 1642.5 and 1636.5 | 955.3 pg/10^5 and 1275.4 pg/10^5 and 1114.9 pg/10^5 | 6587.0 | 1699.5 | conc/live cell [7]: 1314.4 pg/10^5; Concentration [8]: 6553.8 pg/mL and 6454.2 pg/mL and 6753.1 pg/mL; MFI [8]: 1690.5 and 1663.5 and 1744.5; conc/live cell [8]: 1191.6 pg/10^5 and 1344.6 pg/10^5 and 1406.9 pg/10^5; Concentration [9]: 6933.0 pg/mL; MFI [9]: 1793.2; conc/live cell [9]: 1319.4 pg/10^5; Concentration [10]: 7010.0 pg/mL and 6782.6 pg/mL and 7006.3 pg/mL; MFI [10]: 1814.0 and 1752.5 and 1813.0; conc/live cell [10]: 1298.1 pg/10^5 and 1169.4 pg/10^5 and 1490.7 pg/10^5; Concentration [11]: 8675.0 pg/mL; MFI [11]: 2260.0; conc/live cell [11]: 1430.0 pg/10^5; Concentration [12]: 8497.8 pg/mL and 8918.4 pg/mL and 8608.8 pg/mL; MFI [12]: 2213.0 and 2324.5 and 2242.5; conc/live cell [12]: 1393.1 pg/10^5 and 1462.0 pg/10^5 and 1434.8 pg/10^5
